Assay: Evaluation of sublimation of diphenyl tablets versus granules exposed to air
Format: physicochemical
Details: 22 days; 1.06 grams substance at start; empty tray 1 3.715 grams (tablets), empty tray 2 3.650 grams (granules)
Description: Two trays were fashioned from equal sized sheets of aluminum foil and tape. The trays were each weighed after fashioning, with tray 1 weighing 3.715 grams and tray 2 weighing 3.650 grams (a weight difference between trays of 0.065 grams). Two compressed diphenyl tablets handled with tweezers were first weighed at a total weight of 1.06 grams and then placed into tray 1. An equal amount of diphenyl granules (i.e., having a total weight of 1.06 grams) was spooned into tray 2.
Both trays were exposed to air over 22 days and re-weighed. Tray 1 weighed 4.45 grams and tray 2 weighed 3.99 grams. After adjusting the weight difference of the trays by subtracting 0.065 grams from tray 1, it can be seen that the diphenyl tablets sublimed at a slower rate than the diphenyl granules by retaining 8.88 weight % more than the granules after being exposed to air for 22 days.

c1ccc(-c2ccccc2)cc1 [diphenyl granules, diphenyl]
Weight of tray with substance after exposure to air: 3.99 grams

Source: patent publication US20240147991A1, “Diphenyl Tablets and Methods of Preparing the Same” (Ideaz, LLC, priority 2018, published 2024)
